Source: patent US11896586B2, “Apixaban formulations” (Bristol-Myers Squibb Company, priority 2018, dated 2024)

Assay: Dissolution of apixaban in SLD coating solvent, monitored in situ by UV probe
Assay type: physicochemical
Experimental: Three aliquots of ethanol were dispensed. Apixaban was added to the first portion (1464 g) with stirring. This suspension was then added to a 20 L mixing vessel. To ensure complete API transfer, the remaining aliquots of ethanol (two aliquots of approximately 2600 g each) were used to rinse the suspension container surfaces and were subsequently added to the 20 L mixing vessel in step-wise fashion. The apixaban/ethanol solution was stirred using an overhead mixer at approximately 500 rpm for 50 minutes. Dissolution of apixaban in ethanol was monitored in-situ using a UV probe (absorbance range 278-282 nm, 2 mm tip opening, measure rate 1 s^−1).

Compound: COc1ccc(-n2nc(C(N)=O)c3c2C(=O)N(c2ccc(N4CCCCC4=O)cc2)CC3)cc1 [apixaban, 1-(4-methoxyphenyl)-7-oxo-6-[4-(2-oxo-1-piperidinyl)phenyl]-4,5,6,7-tetrahydro-1H-pyrazolo[3,4-c]pyridine-3-carboxamide]
- Time to full dissolution of apixaban (ethanol, measured at 0.15 mgA/mL, UV 278-282 nm): less than 10 minutes
- Time to full dissolution of apixaban (ethanol/water/HPMC solution, apparent concentration 0.21 mgA/g, UV 280 nm): less than 10 minutes
